In patent publication US20250057819A1, “DRUG COMBINATIONS FOR INHIBITING CORONAVIRUS REPLICATION” (priority 2021, published 2025):
Counter-ions that a name gives are not always drawn. Like-named read-outs stand apart in the source and are kept apart here.

Columns and labels:
Experiment in all cases: microbe, parasite or virus in culture
Format in all cases: cell-based
[1] = test system: SARS-CoV-2; conditions: read-out: SARS-CoV-2 (Vido) EC50
[2] = test system: SARS-CoV-2 (Alpha); conditions: Huh7.5 cells, monotherapy
[3] = test system: SARS-CoV-2 (Beta); conditions: Huh7.5 cells, monotherapy
[4] = Severe acute respiratory syndrome coronavirus 2, Huh7.5
[5] = Severe acute respiratory syndrome coronavirus 2

SMILES: CC(C)C(=O)OC[C@H]1O[C@@H](n2cc/c(=N\O)[nH]c2=O)[C@H](O)[C@@H]1O [Molnupinavir]
- EC50 [1]: 0.09 µM
- EC50 [2]: 0.06 µM
- EC50 [3]: 0.11 µM

SMILES: Cc1c(O)cccc1C(=O)N[C@@H](CSc1ccccc1)[C@H](O)CN1C[C@H]2CCCC[C@H]2C[C@H]1C(=O)NC(C)(C)C [Nelfinavir mesylate]
- EC50 [1, 4]: 1.8 µM
- EC50 [2, 5]: 0.5 µM
- EC50 [3, 5]: 0.11 µM

SMILES: CCN(CC)CCOc1ccc2c(c1)C(=O)c1cc(OCCN(CC)CC)ccc1-2 [Tilorone dihydrochloride]
- EC50 [1, 4]: 0.93 µM
- EC50 [2, 5]: 0.25 µM
- EC50 [3, 5]: 0.19 µM
